The structures appear in SMILES notation.

For the compound `Fc1ccc(C(Oc2cc(Br)c3ncccc3c2)c2nnco2)nc1` (stereo not shown), the melting point (in general, the temperature, or range, at which the solid turns liquid) is 176 to 182 °C. With `Cc1nnc(C(Oc2ccc3ncccc3c2)c2ccccc2)o1` (stereo not shown), the melting point was 114 to 116 °C.

For `CSc1cnc2ccc(OC(c3cc(Cl)c(Cl)cn3)c3nnco3)cc2c1` (stereo not shown), the melting point lay in the range of 179 to 181 °C. For `c1ccc(C(Oc2ccc3ncccc3c2)c2ncco2)cc1` (stereo not shown), the melting point was in the range of 122 to 124 °C. In turn, `Fc1ccc(C(Oc2ccc3ncccc3c2)c2ncco2)nc1` (stereo not shown) had a melting point of 104 to 110 °C. Consider `Cc1cnc2ccc(OC(c3ccc(Br)cn3)c3ncco3)cc2c1` (stereo not shown), for which the melting point was 136 to 139 °C. Take `Cc1cnc2ccc(OC(c3ccc(C#N)cn3)c3ncco3)cc2c1` (stereo not shown): the melting point lay within 168 to 172 °C. In the case of `c1ccc(C(Oc2ccc3ncccc3c2)c2ccco2)cc1` (stereo not shown), the melting point is 215 °C (dec.). As to `Fc1ccc(C(Oc2ccc3ncccc3c2)c2ncon2)nc1` (stereo not shown), the melting point is 115 to 119 °C.

The compound `c1ccc(C(Oc2ccc3ncccc3c2)c2ncon2)cc1` (stereo not shown) gave a melting point of 138 to 140 °C. `c1ccc(C(Oc2ccc3ncccc3c2)c2ccon2)cc1` (stereo not shown) showed a melting point of 126 to 128 °C. `Cc1cc(C(Oc2ccc3ncccc3c2)c2ccccc2)no1` (stereo not shown) yielded a melting point of 108 to 110 °C. `CCOC(=O)c1coc(C(Oc2ccc3ncccc3c2)c2ccccc2)n1` (stereo not shown) showed a melting point of 103 to 107 °C. `CC(C)(O)c1coc(C(Oc2ccc3ncccc3c2)c2ccccc2)n1` (stereo not shown) gave a melting point of 130 to 134 °C. `Cn1nnnc1C(Oc1ccc2ncccc2c1)c1ccccc1` (stereo not shown) registered a melting point of 111 to 113 °C. `c1ccc(C(Oc2ccc3ncccc3c2)c2nncs2)cc1` (stereo not shown) displayed a melting point of 149 to 151 °C.

The compound `Brc1c(OC(c2ccccc2)c2ncon2)ccc2ncccc12` (stereo not shown) registered a melting point of 53 to 55 °C. `Fc1ccc(C(Oc2ccc3ncccc3c2)c2nncs2)nc1` (stereo not shown) gave a melting point of 92 to 94 °C.

`c1ccc(C(Oc2ccc3ncccc3c2)c2ccccn2)cc1` (stereo not shown) gave a melting point of 71 to 73 °C.

Turning to `Brc1cnc2ccc(OC(c3ccccc3)c3ncco3)cc2c1` (stereo not shown), the melting point lay in the range of 136 to 137 °C. In the case of `c1ccc(C(Oc2ccc3nccnc3c2)c2nnco2)cc1` (stereo not shown), the melting point lay within 155 to 157 °C. The same measure for `c1ccc(C(Nc2ccc3ncccc3c2)c2nnco2)cc1` (stereo not shown): 161 to 163 °C; for `c1ccc(C(Oc2cnc3ccccc3c2)c2nnco2)cc1` (stereo not shown): 108 to 110 °C.

With `c1ccc(C(Sc2ccc3ncccc3c2)c2nnco2)cc1` (stereo not shown), the melting point was in the range of 126 to 130 °C. Compound `Fc1ccc(C(Oc2cnc3ncccc3c2)c2nnco2)nc1` (stereo not shown) registered a melting point of 154 to 158 °C. `FC(F)Oc1ccc(C(Oc2ccc3ncccc3c2)c2nncs2)nc1` (stereo not shown) showed a melting point of 60 to 62 °C.

`[O-][n+]1cccc2cc(OC(c3ccc(F)cn3)c3nnco3)ccc21` (stereo not shown) came in with a melting point of 176 to 177 °C. Turning to `[O-][n+]1cc(F)ccc1C(Oc1ccc2c(ccc[n+]2[O-])c1)c1nnco1` (stereo not shown), the melting point is 224 to 226 °C. As to `Fc1ccc(C(Oc2cccc3ncccc23)c2nnco2)nc1` (stereo not shown), the melting point fell in the range of 198 to 200 °C. For `Clc1ccc(C(Nc2ccc3ncccc3c2)c2nnco2)cc1` (stereo not shown) the value was 151 to 152 °C; for `c1ccc(C(Oc2cc3cccnc3cn2)c2nnco2)cc1` (stereo not shown), 136 to 139 °C. Regarding `CO/N=C/c1cnc2ccc(OC(c3ccc(F)cn3)c3nnco3)cc2c1` (stereo not shown), the melting point was in the range of 148 to 152 °C. `CO/N=C/c1cc(OC(c2ccc(F)cn2)c2nnco2)cc2cccnc12` (stereo not shown) registered a melting point of 164 to 166 °C. As for `CCO/N=C/c1cc(OC(c2ccc(F)cn2)c2nnco2)cc2cccnc12` (stereo not shown), the melting point lay within 182 to 184 °C. With `CC(C)O/N=C/c1cc(OC(c2ccc(F)cn2)c2nnco2)cc2cccnc12` (stereo not shown), the melting point lay in the range of 158 to 159 °C.

Compound `CO/N=C/c1cnc2ccc(OC(c3ccc(F)cn3)c3nnco3)c(Br)c2c1` (stereo not shown) registered a melting point of 172 to 173 °C. `Fc1ccc(C(Oc2ccc3ncccc3c2)c2ncno2)nc1` (stereo not shown) yielded a melting point of 100 to 104 °C. The compound `c1ccc(C(Oc2ccc3ncccc3c2)c2cnco2)cc1` (stereo not shown) registered a melting point of 110 to 113 °C.

The compound `Cc1noc(C(Oc2ccc3ncccc3c2)c2ccc(F)cn2)n1` (stereo not shown) showed a melting point of 79 to 81 °C. In the case of `Fc1ccc(C(Oc2cc(/C=C/C(F)(F)F)c3ncccc3c2)c2nnco2)nc1` (stereo not shown), the melting point lay in the range of 147 to 150 °C. For `CCO/N=C/c1cnc2ccc(OC(c3ccc(F)cn3)c3nnco3)cc2c1` (stereo not shown) the value was 130 to 133 °C; for `CC(C)O/N=C/c1cnc2ccc(OC(c3ccc(F)cn3)c3nnco3)cc2c1` (stereo not shown), 112 to 115 °C.

As for `Fc1ccc(C(Oc2ccc3ncc(/C=N/OCC(F)(F)F)cc3c2)c2nnco2)nc1` (stereo not shown), the melting point lay within 118 to 120 °C. As for `CO/N=C/c1cnc2ccc(O[C@@H](c3ccc(F)cn3)c3nnco3)cc2c1`, the melting point lay within 136 to 137 °C. As to `CO/N=C/c1cnc2ccc(O[C@H](c3ccc(F)cn3)c3nnco3)cc2c1`, the melting point was in the range of 136 to 138 °C. The same measure for `CO/N=C/c1ccnc(C(Oc2cc(F)c3ncccc3c2)c2nnco2)c1` (stereo not shown): 174 to 177 °C. For `Clc1ccc(C(Nc2ccc3ncc(Br)cc3c2)c2nnco2)nc1` (stereo not shown) the value was 214 to 217 °C; for `CO/N=C/c1ccnc(C(Oc2cc(Cl)c3ncccc3c2)c2nnco2)c1` (stereo not shown), 166 to 168 °C. The same measure for `CO/N=C/c1ccnc(C(Oc2cc(Br)c3ncccc3c2)c2nnco2)c1` (stereo not shown): 165 to 167 °C. In turn, `CCO/N=C/c1ccnc(C(Oc2cc(F)c3ncccc3c2)c2nnco2)c1` (stereo not shown) gave a melting point of 168 to 171 °C.

`CC(C)O/N=C/c1ccnc(C(Oc2cc(F)c3ncccc3c2)c2nnco2)c1` (stereo not shown) gave a melting point of 126 to 129 °C.

The compound `C#CCO/N=C/c1ccnc(C(Oc2cc(F)c3ncccc3c2)c2nnco2)c1` (stereo not shown) yielded a melting point of 128 to 130 °C.

(Values after US20200275661A1 (published 2020).)
